Source: ChEMBL document CHEMBL1770079, “Discovery of small molecule human FPR1 receptor antagonists” (Bioorg Med Chem Lett, 2011)
In brackets after ≈: the same amount, converted by molar mass. Activity calls are given as the source filed them. The calls are words filed in the database; no cut-off is given here.

Key:
[1] = biological target: T1, fMet-Leu-Phe receptor (Homo sapiens, UniProt P21462); experiment: (§1) Intrinsic activity at FPR1 in human neutrophils assessed as increase in calcium mobilization by FLIPR assay relative to fMLF; type: functional
T1 sequence (P21462 whole entry): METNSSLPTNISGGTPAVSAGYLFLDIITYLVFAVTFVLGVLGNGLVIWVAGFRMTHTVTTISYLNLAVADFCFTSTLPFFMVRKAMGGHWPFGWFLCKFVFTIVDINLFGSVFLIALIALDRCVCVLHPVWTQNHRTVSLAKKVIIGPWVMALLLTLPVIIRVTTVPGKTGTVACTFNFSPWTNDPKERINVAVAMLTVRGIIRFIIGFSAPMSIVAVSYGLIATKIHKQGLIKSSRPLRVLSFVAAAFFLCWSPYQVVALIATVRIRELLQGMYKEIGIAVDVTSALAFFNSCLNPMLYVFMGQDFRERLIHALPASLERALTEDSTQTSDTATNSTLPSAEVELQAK

[2] = biological target: T2, fMet-Leu-Phe receptor (Homo sapiens) (UniProt P21462); experiment: (§2) Agonist activity at FPR1 in human neutrophils assessed as increase in calcium mobilization by FLIPR assay; type: functional; design: concentration or dose not given beside the values; details: concentration not given here
T2 sequence (whole entry): T1 sequence (P21462 whole entry)

[3] = biological target: T2, fMet-Leu-Phe receptor (Homo sapiens); experiment: Antagonist activity at FPR1 in human neutrophils assessed as inhibition of fMLF-stimulated calcium mobilization at 50 uM by FLIPR assay; type: functional
[4] = biological target: T1, fMet-Leu-Phe receptor; experiment: as §2; type: functional
[5] = biological target: T2, fMet-Leu-Phe receptor (Homo sapiens); experiment: as §1; type: functional
[6] = biological target: T1, fMet-Leu-Phe receptor; experiment: Displacement of [3H]fMLF from human FPR1 expressed in CHO cells by scintillation counting; type: cell-based
[7] = biological target: T1, fMet-Leu-Phe receptor; experiment: Antagonist activity at FPR1 in human neutrophils assessed as inhibition of fMLF-stimulated calcium mobilization by FLIPR assay; type: functional
[8] = biological target: T3, N-formyl peptide receptor 2 (Homo sapiens) (UniProt P25090); experiment: Antagonist activity at FPR2 in human neutrophils assessed as inhibition of SHHGtide-stimulated intracellular calcium mobilisation at 50 uM by FLIPR assay; type: functional, cell-based
T3 sequence (whole entry): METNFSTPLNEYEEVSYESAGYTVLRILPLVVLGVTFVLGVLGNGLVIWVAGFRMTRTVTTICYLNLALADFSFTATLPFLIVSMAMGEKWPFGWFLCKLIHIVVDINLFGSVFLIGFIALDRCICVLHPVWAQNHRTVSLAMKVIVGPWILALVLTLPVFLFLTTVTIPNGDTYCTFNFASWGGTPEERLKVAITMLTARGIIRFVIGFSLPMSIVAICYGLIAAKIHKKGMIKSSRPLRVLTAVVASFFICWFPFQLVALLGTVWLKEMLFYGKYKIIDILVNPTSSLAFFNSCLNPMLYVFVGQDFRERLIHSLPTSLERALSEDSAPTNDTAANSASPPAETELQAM

[9] = biological target: T4, C-X-C chemokine receptor type 2 (Homo sapiens) (UniProt P25025); experiment: Antagonist activity at CXCR2 in human neutrophils assessed as inhibition of GROalpha-stimulated intracellular calcium mobilization at 50 uM by FLIPR assay; type: functional, cell-based
T4 sequence (whole entry): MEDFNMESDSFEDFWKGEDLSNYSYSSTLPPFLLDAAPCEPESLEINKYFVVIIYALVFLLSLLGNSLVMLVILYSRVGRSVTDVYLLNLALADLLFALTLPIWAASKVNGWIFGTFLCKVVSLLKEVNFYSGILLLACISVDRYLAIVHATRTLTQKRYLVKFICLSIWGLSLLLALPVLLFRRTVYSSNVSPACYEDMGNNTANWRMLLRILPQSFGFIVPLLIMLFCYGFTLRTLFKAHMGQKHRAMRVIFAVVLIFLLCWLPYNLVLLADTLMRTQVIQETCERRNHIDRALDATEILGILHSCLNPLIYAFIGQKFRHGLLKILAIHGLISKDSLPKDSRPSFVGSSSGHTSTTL

[10] = biological target: T5, C5a anaphylatoxin chemotactic receptor 1 (Homo sapiens) (UniProt P21730); experiment: Antagonist activity at C5aR in human neutrophils assessed as inhibition of C5a-stimulated intracellular calcium mobilization at 50 uM by FLIPR assay; type: functional, cell-based
T5 sequence (whole entry): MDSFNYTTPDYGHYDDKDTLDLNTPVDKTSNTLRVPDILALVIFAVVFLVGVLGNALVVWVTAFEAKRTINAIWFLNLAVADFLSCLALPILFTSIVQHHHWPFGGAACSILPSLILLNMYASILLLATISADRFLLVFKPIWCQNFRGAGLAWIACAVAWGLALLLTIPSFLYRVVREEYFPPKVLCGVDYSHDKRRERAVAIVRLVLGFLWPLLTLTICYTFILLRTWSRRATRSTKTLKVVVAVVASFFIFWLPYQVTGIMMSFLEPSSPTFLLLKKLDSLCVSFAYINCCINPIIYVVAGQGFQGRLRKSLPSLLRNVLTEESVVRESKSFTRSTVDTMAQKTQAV

[11] = biological target: T1, fMet-Leu-Phe receptor; experiment: Antagonist activity at human FPR1 in expressed in HEK293 cells assessed as inhibition of fMLF-stimulated intracellular calcium mobilisation after 5 mins by FLIPR assay; type: functional, cell-based
[12] = Antagonist activity at rat FPR1 expressed in HEK293 cells assessed as inhibition of fMLF-stimulated intracellular calcium mobilisation by FLIPR assay; type: functional, cell-based
[13] = biological target: T2, fMet-Leu-Phe receptor (Homo sapiens); experiment: Agonist activity at FPR1 in human neutrophils assessed as increase in calcium mobilization at 50 uM by FLIPR assay; type: functional
[14] = biological target: T1, fMet-Leu-Phe receptor; experiment: Antagonist activity at FPR1 in human neutrophils assessed as inhibition of fMLF-stimulated degranulation after 15 mins by fluorescence assay; type: functional
[15] = biological target: T2, fMet-Leu-Phe receptor (Homo sapiens); experiment: Antagonist activity at FPR1 in human neutrophils assessed as inhibition of PMA-stimulated neutrophil degranulation after 15 mins by fluorescence assay; type: functional
[16] = biological target: T2, fMet-Leu-Phe receptor (Homo sapiens); experiment: Reversible inhibition of FPR1 in human neutrophils assessed as inhibition of fMLF-stimulated calcium mobilisation by FLIPR assay; type: functional
[17] = tested on: THP-1; experiment: Cytotoxicity against human THP1 cells assessed as cell viability after 24 hrs by Alamar blue assay; type: cell-based; details: THP-1, 24 h
[18] = Solubility of the compound in 0.1 M phosphate buffer; type: physicochemical
[19] = biological target: T6, fMet-Leu-Phe receptor (Mus musculus) (UniProt P33766); experiment: Antagonist activity at mouse FPR1 expressed in HEK293 cells assessed as inhibition of fMLFF-stimulated intracellular calcium mobilisation at 50 uM by FLIPR assay; type: functional, cell-based
T6 sequence (whole entry): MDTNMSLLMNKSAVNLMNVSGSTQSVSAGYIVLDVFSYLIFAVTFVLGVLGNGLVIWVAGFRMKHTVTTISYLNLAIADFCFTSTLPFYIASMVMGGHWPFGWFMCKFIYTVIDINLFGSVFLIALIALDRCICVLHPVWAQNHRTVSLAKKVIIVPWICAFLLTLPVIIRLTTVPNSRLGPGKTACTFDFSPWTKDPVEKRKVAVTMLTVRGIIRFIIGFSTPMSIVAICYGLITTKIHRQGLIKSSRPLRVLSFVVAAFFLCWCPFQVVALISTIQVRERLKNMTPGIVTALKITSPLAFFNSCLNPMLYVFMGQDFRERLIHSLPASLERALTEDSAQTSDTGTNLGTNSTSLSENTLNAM

[20] = Intrinsic clearance in human microsomes; type: ADME, Microsome
[21] = biological target: T7, fMet-Leu-Phe receptor (Mus musculus, UniProt P33766); experiment: Antagonist activity at mouse FPR1 expressed in HEK293 cells assessed as inhibition of fMLFF-stimulated intracellular calcium mobilisation by FLIPR assay; type: functional, cell-based
T7 sequence (P33766 whole entry): T6 sequence (whole entry)

[22] = tested on: Hepatocyte; experiment: Intrinsic clearance in Sprague-Dawley rat hepatocytes; type: ADME, cell-based, Liver
[23] = Chemical stability of the compound assessed as half life; type: physicochemical

In the case of `CSCCC(NC(=O)c1oc2ccccc2c1C)c1nc2ccccc2[nH]1` (centres undefined), the IC50 [1] is reported as 3980 nM.
For `CCOc1ccc2oc(C(=O)NC(CCSC)c3nc4ncccc4[nH]3)c(C)c2c1` (centres undefined), the inhibition [2] was less than 25%.
`CSCCC(NC(=O)C1CCCCC1)c1nc2ccccc2[nH]1` (centres undefined) gave an IC50 [1] of 2510 nM.
In the case of `CCOc1ccc2oc(C(=O)NC(CCSC)c3nc4ncncc4[nH]3)c(C)c2c1` (centres undefined), the inhibition [2] is reported as less than 25% and the IC50 [1] is reported as 5010 nM.
`Cc1cccc(C(NC(=O)c2ccccc2O)C(=O)Nc2c(C)cccc2C)c1C` (centres undefined) gave an IC50 [1] of 79.4 nM.
`CSCCC(NC(=O)c1ccccc1)c1nc2ccccc2n1Cc1ccc(C#N)cc1` (centres undefined) gave an inhibition [2] of less than 25% and an IC50 [1] of 316 nM.
`CSCCC(NC(=O)c1ocnc1C)c1nc2ccccc2[nH]1` (centres undefined) gave an IC50 [1] of 10000 nM.
Work on `CSCCC(NC(=O)Cc1ccccc1)c1nc2ccccc2[nH]1` (centres undefined) yielded an inhibition [3] of less than 25%.
Work on `CSCCC(NC(=O)c1ccccc1O)c1nc2ccccc2[nH]1` (centres undefined) yielded an IC50 [1] of 3980 nM.
`CCOc1ccc2oc(C(=O)NC(CCSC)c3nc4cnccc4[nH]3)c(C)c2c1` (centres undefined) gave an EC50 [4] of 1580 nM, an Intrinsic activity [5] of 0.8 and an IC50 [1] of 1000 nM.
For `CSCCC(NC(=O)c1cnccn1)c1nc2ccccc2[nH]1` (centres undefined), the IC50 [1] was 10000 nM.
Molecule `CSCCC(NC(=O)c1ccccc1)c1nc2ccccc2[nH]1` (centres undefined) has an IC50 [1] of 5010 nM.
Work on `CCOc1ccc2oc(C(=O)N[C@H](CSC)c3nc4ccccc4[nH]3)c(C)c2c1` yielded an IC50 [1] of 631 nM.
In the case of `CCOc1ccc2oc(C(=O)NC(CCSC)c3nc4ccccc4[nH]3)c(C)c2c1` (centres undefined), the IC50 [6] is reported as 31.6 nM, the IC50 [7] is reported as 501 nM and the IC50 [1] is reported as 501 nM. The inhibition [8] was less than 25%, the inhibition [9] was less than 25% and the inhibition [10] was less than 25%. The IC50 [11] was 3160 nM, the IC50 [12] was 10 µM and the inhibition [13] was less than 25%. For the same molecule, the IC50 [14] was 158 nM, the inhibition [15] was less than 25% and the inhibition [16] was “Active”. The IC50 [17] was 100 µM, the solubility [18] was 17 µM (≈ 7.2 µg/mL) and the inhibition [19] was less than 25%.
`Cc1ccccc1C(=O)NC(C(=O)Nc1c(C)cccc1C)c1ccc(Cl)cc1` (centres undefined) gave an inhibition [3] of less than 25%.
`Cc1ccc(C(NC(=O)c2ccccc2O)C(=O)Nc2c(C)cccc2C)s1` (centres undefined) showed an IC50 [6] of 100 nM, a microsomal CLint [20] of 43 µL/min/mg and an IC50 [7] of 398 nM. For the same molecule, the IC50 [1] was 316 nM, the inhibition [8] was less than 25% and the inhibition [9] was less than 25%. The inhibition [10] was less than 25%, the IC50 [11] was 1580 nM and the IC50 [21] was 25.1 µM. The IC50 [12] was 1.26 µM, the inhibition [13] was less than 25% and the IC50 [14] was 398 nM. For the same molecule, the CL [22] was 70 µL/min, the inhibition [15] was less than 25% and the inhibition [16] was “Active”. The IC50 [17] was 79.4 µM, the solubility [18] was 68 µM (≈ 26.8 µg/mL) and the half-life [23] was greater than 10.8 days.
Work on `Cc1cccc(C)c1NC(=O)C(c1ccccc1)N(C)C(=O)c1ccccc1O` (centres undefined) yielded an IC50 [1] of 10000 nM.
Molecule `COc1ccccc1C(=O)NC(CCSC)c1nc2ccccc2[nH]1` (centres undefined) has an inhibition [3] of less than 25%.
Work on `Cc1cccc(C)c1NC(=O)C(NC(=O)c1ccccc1O)c1ccc(Cl)cc1` (centres undefined) yielded an IC50 [1] of 794 nM.
